Test results from PubChem BioAssay AID1259407 (Chemical Carcinogenesis Research Information System (CCRIS), 2018).
The source made the active and inactive calls. No rule for the calls is given here.

Test system: CCRIS mutagenicity, Ames/micronucleus/aberration tests
Assay: CCRIS mutagenicity studies

With `O=CCCCC=O` the mutagenic call (End Point: IN VITRO CHROMOSOMAL ABERRATIONS, Test System: CHL CELLS, Metabolic Activation: RAT, LIVER, S-9, SODIUM PHENOBARBITAL AND 5,6-BENZOFLAVONE) was “active; positive (structural and ploidy changes)”, the mutagenic call (End Point: IN VITRO CHROMOSOMAL ABERRATIONS, Test System: SYRIAN HAMSTER EMBRYO (SHE) CELLS, Metabolic Activation: NONE) was “inactive; negative” and the mutagenic call (End Point: IN VITRO CHROMOSOMAL ABERRATIONS, Test System: SYRIAN HAMSTER EMBRYO (SHE) CELLS, Metabolic Activation: RAT, LIVER, S-9) was “inactive; negative”. The mutagenic call (End Point: In vitro micronucleus, Test System: Chinese hamster V79 cells, Metabolic Activation: None) was “active; positive (concentrations of 10 um and above strongly inhibited growth of cells,”, the mutagenic call (End Point: In vitro micronucleus, Test System: Chinese hamster V79 cells, Metabolic Activation: None, Method: FISH) was “inactive; positive (majority were centromer negative. authors attribute results as showing” and the mutagenic call (Test System: AMES SALMONELLA TYPHIMURIUM, Strain/Indicator: TA97A, Metabolic Activation: NONE, Method: STANDARD PLATE) was “inactive; negative”. For the same compound, the mutagenic call (Test System: AMES SALMONELLA TYPHIMURIUM, Strain/Indicator: TA98, Metabolic Activation: HAMSTER LIVER S-9, AROCLOR-1254 (10%), Method: PREINCUBATION) was “inactive; negative”, the mutagenic call (Test System: AMES SALMONELLA TYPHIMURIUM, Strain/Indicator: TA98, Metabolic Activation: NONE, Method: STANDARD PLATE) was “inactive; negative” and the mutagenic call (Test System: AMES SALMONELLA TYPHIMURIUM, Strain/Indicator: TA98, Metabolic Activation: RAT LIVER S-9, AROCLOR-1254 (10%), Method: PREINCUBATION) was “inactive; negative”. The mutagenic call (Test System: AMES SALMONELLA TYPHIMURIUM, Strain/Indicator: TA98, Metabolic Activation: RAT LIVER S-9, PHENOBARBITAL AND BETA-NAPHTHOFLAVONE, Method: PREINCUBATION) was “inactive; negative”, the mutagenic call (Test System: AMES SALMONELLA TYPHIMURIUM, Strain/Indicator: TA100, Metabolic Activation: HAMSTER LIVER S-9, AROCLOR-1254 (10%), Method: PREINCUBATION) was “inactive; negative” and the mutagenic call (Test System: AMES SALMONELLA TYPHIMURIUM, Strain/Indicator: TA100, Metabolic Activation: MOUSE LIVER S-9, AROCLOR 1254, Method: PREINCUBATION) was “active; positive”. For the same compound, the mutagenic call (Test System: AMES SALMONELLA TYPHIMURIUM, Strain/Indicator: TA100, Metabolic Activation: NONE, Method: STANDARD PLATE) was “inactive; negative”, the mutagenic call (Test System: AMES SALMONELLA TYPHIMURIUM, Strain/Indicator: TA100, Metabolic Activation: RAT LIVER S-9, AROCLOR 1254, Method: PREINCUBATION) was “active; positive” and the mutagenic call (Test System: AMES SALMONELLA TYPHIMURIUM, Strain/Indicator: TA100, Metabolic Activation: RAT LIVER S-9, PHENOBARBITAL AND BETA-NAPHTHOFLAVONE NONE, Method: PREINCUBATION) was “inactive; negative”. The mutagenic call (Test System: AMES SALMONELLA TYPHIMURIUM, Strain/Indicator: TA102, Metabolic Activation: MOUSE LIVER S-9, AROCLOR 1254, Method: PREINCUBATION) was “active; positive”, the mutagenic call (Test System: AMES SALMONELLA TYPHIMURIUM, Strain/Indicator: TA102, Metabolic Activation: MOUSE LIVER S-9, AROCLOR-1254 (10%), Method: PREINCUBATION) was “active; positive” and the mutagenic call (Test System: AMES SALMONELLA TYPHIMURIUM, Strain/Indicator: TA102, Metabolic Activation: NONE, Method: PREINCUBATION) was “active; positive”. The mutagenic call (Test System: AMES SALMONELLA TYPHIMURIUM, Strain/Indicator: TA102, Metabolic Activation: RAT LIVER S-9, AROCLOR 1254, Method: PREINCUBATION) was “active; positive”, the mutagenic call (Test System: AMES SALMONELLA TYPHIMURIUM, Strain/Indicator: TA102, Metabolic Activation: RAT LIVER S-9, AROCLOR-1254 (10%), Method: PREINCUBATION) was “active; positive” and the mutagenic call (Test System: AMES SALMONELLA TYPHIMURIUM, Strain/Indicator: TA104, Metabolic Activation: MOUSE LIVER S-9, AROCLOR 1254, Method: PREINCUBATION) was “active; positive”. The mutagenic call (Test System: AMES SALMONELLA TYPHIMURIUM, Strain/Indicator: TA104, Metabolic Activation: MOUSE LIVER S-9, AROCLOR-1254 (10%), Method: PREINCUBATION) was “active; positive”, the mutagenic call (Test System: AMES SALMONELLA TYPHIMURIUM, Strain/Indicator: TA104, Metabolic Activation: NONE, Method: PREINCUBATION) was “active; positive” and the mutagenic call (Test System: AMES SALMONELLA TYPHIMURIUM, Strain/Indicator: TA104, Metabolic Activation: NONE, Method: STANDARD PLATE) was “inactive; negative”. The mutagenic call (Test System: AMES SALMONELLA TYPHIMURIUM, Strain/Indicator: TA104, Metabolic Activation: RAT LIVER S-9, AROCLOR 1254, Method: PREINCUBATION) was “active; positive”, the mutagenic call (Test System: AMES SALMONELLA TYPHIMURIUM, Strain/Indicator: TA104, Metabolic Activation: RAT LIVER S-9, AROCLOR-1254 (10%), Method: PREINCUBATION) was “active; positive” and the mutagenic call (Test System: AMES SALMONELLA TYPHIMURIUM, Strain/Indicator: TA1535, Metabolic Activation: HAMSTER LIVER S-9, AROCLOR-1254 (10%), Method: PREINCUBATION) was “inactive; negative”. The mutagenic call (Test System: AMES SALMONELLA TYPHIMURIUM, Strain/Indicator: TA1535, Metabolic Activation: NONE, Method: PREINCUBATION) was “inactive; negative”, the mutagenic call (Test System: AMES SALMONELLA TYPHIMURIUM, Strain/Indicator: TA1535, Metabolic Activation: RAT LIVER S-9, AROCLOR-1254 (10%), Method: PREINCUBATION) was “inactive; negative” and the mutagenic call (Test System: AMES SALMONELLA TYPHIMURIUM, Strain/Indicator: TA1535, Metabolic Activation: RAT LIVER S-9, PHENOBARBITAL AND BETA-NAPHTHOFLAVONE NONE, Method: PREINCUBATION) was “inactive; negative”. The mutagenic call (Test System: AMES SALMONELLA TYPHIMURIUM, Strain/Indicator: TA1537, Metabolic Activation: HAMSTER LIVER S-9, AROCLOR-1254 (10%), Method: PREINCUBATION) was “inactive; negative”, the mutagenic call (Test System: AMES SALMONELLA TYPHIMURIUM, Strain/Indicator: TA1537, Metabolic Activation: NONE, Method: PREINCUBATION) was “inactive; negative” and the mutagenic call (Test System: AMES SALMONELLA TYPHIMURIUM, Strain/Indicator: TA1537, Metabolic Activation: RAT LIVER S-9, AROCLOR-1254 (10%), Method: PREINCUBATION) was “inactive; negative”. For the same compound, the mutagenic call (Test System: AMES SALMONELLA TYPHIMURIUM, Strain/Indicator: TA1537, Metabolic Activation: RAT LIVER S-9, PHENOBARBITAL AND BETA-NAPHTHOFLAVONE NONE, Method: PREINCUBATION) was “inactive; negative”, the mutagenic call (Test System: AMES SALMONELLA TYPHIMURIUM, Strain/Indicator: TA2638, Metabolic Activation: NONE, Method: STANDARD PLATE) was “active; positive” and the mutagenic call (Test System: AMES SALMONELLA TYPHIMURIUM, Strain/Indicator: TA2638A, Metabolic Activation: NONE, Method: STANDARD PLATE) was “active; positive”. For the same compound, the mutagenic call (Test System: E. COLI, Strain/Indicator: WP2 UVRA (PKM101), Metabolic Activation: NONE, Method: STANDARD PLATE) was “active; positive”, the mutagenic call (Test System: E. COLI, Strain/Indicator: WP2UVRA, Metabolic Activation: NONE, Method: PREINCUBATION) was “inactive; negative” and the mutagenic call (Test System: E. COLI, Strain/Indicator: WP2UVRA, Metabolic Activation: RAT LIVER S-9, PHENOBARBITAL AND BETA-NAPHTHOFLAVONE, Method: PREINCUBATION) was “inactive; negative”. The mutagenic call (Test System: MOUSE LYMPHOMA, Strain/Indicator: L5178Y (TRIFLUOROTHYMIDINE), Metabolic Activation: NONE, Method: SUSPENSION/PLATE) was “active; positive” and the mutagenic call (Test System: UDS RODENT HEPATOCYTES, Strain/Indicator: THY INCORP (NON-S-PHASE), Metabolic Activation: NONE, Method: AUTORADIOGRAPHY) was “active; positive”.
